Where two headings read alike, the source gives them in different places.
Tests used:
[1] = Chronic toxicity in rats (NOEL); format: in vivo; settings: oral route, 60 kg
[2] = in vivo, iv
[3] = human, intravenous route; cited from earlier work
[4] = rats, intraperitoneal route; cited from earlier work
[5] = mouse, cited from earlier work
[6] = chronic toxicity in rats, for 12 months; cited from earlier work
[7] = cited from earlier work
[8] = tested on: Glutathione (GSH); settings: cited from earlier work
[9] = 11,195 cases of suspected acetaminophen overdose reviewed; cited from earlier work

## CC(=O)N[C@@H](CS)C(=O)O [NAC, N-acetylcysteine]
[1]
  1200 mg dose (20 mg/kg) referred to NOEL in rats: 50 times less
[2]
  1200 mg dose (20 mg/kg) referred to TDLO in human: about 10 times less
[3]
  Toxic Dose Low (TDLO): 150 to 200 mg/kg
[4]
  Toxic Dose Low (TDLO): 150 to 200 mg/kg
[5]; intraperitoneal route
  Toxic Dose Low (TDLO): 408 to 450 mg/kg
[5]; oral route
  Toxic Dose Low (TDLO): 300 mg/kg
[6]
  no observed effect level (NOEL) dose: about 1000 mg/kg/day
[7]; after oral administration
  plasma half-life: 6.3 h
  time at which maximum plasma concentration is reached: 2 to 3 h
[7]; following oral administration for 4-14 days
  NAC in plasma or bronchoalveolar lavage fluid: cannot be detected
[7]; oral, unchanged molecule
  bioavailability: about 10%
[8]; NAC 600 mg once daily
  cysteine and GSH levels in plasma and lung: increased transiently
[8]; patients with COPD, 600 mg once daily
  plasma concentration of Glutathione (GSH): unchanged
[8]; patients with COPD, 600 mg three times daily
  plasma GSH levels: increased
[9]
  effectiveness of 72-hour oral regimen: as effective as the 24-hour regimen

From EP2574333B1, “N-acetylcysteine effervescent tablet and its therapeutical applications” (Friulchem SpA, priority 2011, dated 2013)
